Results published in PubChem BioAssay AID1845211 (Molecular Pharmacology Branch, DTP, NCI, 2023).
pIC50: −log10 of the molar value.

System: NCI-H322M multicellular tumor spheroids, viability (% test/control)
Test: Anticancer human tumor NCI-H322M cell line growth inhibition;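 as to viability, T/C: spheroids exposed to compound for seven days before readout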
Settings: for pIC50: curve of first compound; for viability, T/C: stronger effect = lower value
Source text: Multicellular complex tumor spheroid response to DNA repair inhibitors in combination with DNA-damaging drugs
This study explores the anticancer activities of DNA-damaging drugs and inhibitors of DNA damage repair, both as single agents and in combinations. Complex tumor spheroids comprised of malignant cells, endothelial cells and mesenchymal stem cells served as an in vitro model for human solid tumors. This model system incorporates physiologically relevant features and patient-derived or established malignant cell lines with clinically relevant genetic alterations from many tumor types. Twenty-six patient-derived or established malignant cell lines were evaluated representing sarcoma, melanoma, small cell lung cancer (SCLC), non-small cell lung cancer (NSCLC), as well as bladder, ovarian and pancreatic cancers. The concentration ranges selected for each drug and investigational agent were based upon clinically achievable concentrations if the clinical Cmax of the agent was known.
Compounds. The drugs and compounds olaparib (NSC753686), talazoparib (NSC767125), berzosertib (NSC777718), elimusertib (NSC800525), nedisertib (NSC802822), VX-984 (NSC792969), AZD-1390 (NSC803789), temozolomide (NSC362856), topotecan (NSC609699), trabectedin (NSC813783), staurosporine (NSC755774), and gemcitabine (NSC613327) were obtained from the National Cancer Institute (NCI) Developmental Therapeutics Program Chemical Repository. The FDA-approved anticancer drug set is available from the Developmental Therapeutics Program at https://dtp.cancer.gov/organization/dscb/obtaining/available_plates.htm. […] The stock solutions were prepared in dimethyl sulfoxide (DMSO, Sigma-Aldrich, St. Louis, MO, cat. D2650) at 400-fold the tested concentration and stored at -70 degrees C. Prior to their use, the stock solutions were diluted in fresh medium and the final DMSO concentration in the assay was 0.25% (v/v). All drugs and investigational agents were tested over a range starting from a high concentration at or near the clinical Cmax and decreasing in half-log increments. If the clinical Cmax for an agent had not been determined, the highest concentration tested was 10 microM.
Cell Lines. The patient-derived cancer cell (PDC) lines: 156681-154-R-J1-PDC, 283228-195-R-J1-PDC, 287954-098-R-J1-PDC, 292921-168-R-J2-PDC, 349418-098-R-PDC, 425362-245-T-J1-PDC, 556581-035-R-J1-PDC, and BL0293-F563-PDC were received from the NCI Patient-Derived Models Repository (PDMR, https://pdmr.cancer.gov). The established cell lines HS-SY-2 (RRID:CVCL_8719), MPNST, and SYO-1 (RRID:CVCL_7146) were obtained from the Sloan Kettering Institute. The alveolar soft parts sarcoma cell line ASPS-1 (RRID:CVCL_S738) was established at the NCI and grown from internal seed stocks. The following established cell lines were purchased from the American Type Culture Collection (ATCC, Manassas, VA): G-401 (ATCC, cat. CRL-1441, RRID:CVCL_0270), SW982 (ATCC, cat. HTB-93, RRID:CVCL_1734), VA-ES-BJ (ATCC, cat. CRL-2138, RRID:CVCL_1785), NCI-H719 (ATCC, cat. CRL-5837, RRID:CVCL_1582), NCI-H196 (ATCC, cat. CRL-5823, RRID:CVCL_1509), NCI-H841 (ATCC, cat. CRL-5845, RRID:CVCL_1595), NCI-H1618 (ATCC, cat. CRL-5879, RRID:CVCL_1480), NCI-H1876 (ATCC, cat. CRL-5902, RRID:CVCL_1503), DMS 114 (ATCC, cat. CRL-2066; RRID:CVCL_1174), NCI-H211 (ATCC, cat. CRL-5824; RRID:CVCL_1529), and SW 1271 (ATCC, cat. CRL-2177, RRID:CVCL_1716). The small cell lung cancer cell line COR-L88 was purchased from Sigma-Aldrich (cat. 92031917-1VL, RRID:CVCL_1141). The non-small cell lung cancer cell lines NCI-H226 (RRID:CVCL_1544) and NCI-H322M (RRID:CVCL_1557) were established at the NCI and grown from internal seed stocks. Pooled donor human umbilical vein endothelial cells (HUVEC, Lonza, cat. CC-2519) and human mesenchymal stem cells (hMSC, Lonza, cat. PT-2501) were purchased from Lonza (Walkersville, MD).
Cell Culture. All cells were maintained in an incubator at 37 degrees C and 5% CO2 with 95% humidity. […]

COc1ccc([C@@H](O)c2cc(-c3ncnc4cc(N5CCOCC5)ccc34)c(F)cc2Cl)nn1 + Cn1nnc2c(C(N)=O)ncn2c1=O
pIC50 (second compound 1 µM): 5.43
pIC50 (second compound 3.16 µM): 5.85
pIC50 (second compound 10 µM): 5.69
pIC50 (second compound 31.6 µM): 5.70
pIC50 (second compound 100 µM): 5.72
viability, T/C (second compound 1 µM, first compound 0.0316 µM): 86%
viability, T/C (second compound 1 µM, first compound 0.1 µM): 77.2%
viability, T/C (second compound 1 µM, first compound 0.316 µM): 85.8%
viability, T/C (second compound 1 µM, first compound 1 µM): 55.5%
viability, T/C (second compound 1 µM, first compound 3.16 µM): 57.1%
viability, T/C (second compound 1 µM, first compound 10 µM): 35.4%
viability, T/C (second compound 3.16 µM, first compound 0.0316 µM): 78.2%
viability, T/C (second compound 3.16 µM, first compound 0.1 µM): 80.8%
viability, T/C (second compound 3.16 µM, first compound 0.316 µM): 81.2%
viability, T/C (second compound 3.16 µM, first compound 1 µM): 52.9%
viability, T/C (second compound 3.16 µM, first compound 3.16 µM): 50.1%
viability, T/C (second compound 3.16 µM, first compound 10 µM): 35.8%
viability, T/C (second compound 10 µM, first compound 0.0316 µM): 105%
viability, T/C (second compound 10 µM, first compound 0.1 µM): 76.9%
viability, T/C (second compound 10 µM, first compound 0.316 µM): 68.2%
viability, T/C (second compound 10 µM, first compound 1 µM): 61.2%
viability, T/C (second compound 10 µM, first compound 3.16 µM): 46.8%
viability, T/C (second compound 10 µM, first compound 10 µM): 35.3%
viability, T/C (second compound 31.6 µM, first compound 0.0316 µM): 83.6%
viability, T/C (second compound 31.6 µM, first compound 0.1 µM): 94.6%
viability, T/C (second compound 31.6 µM, first compound 0.316 µM): 65.7%
viability, T/C (second compound 31.6 µM, first compound 1 µM): 58.9%
viability, T/C (second compound 31.6 µM, first compound 3.16 µM): 47.9%
viability, T/C (second compound 31.6 µM, first compound 10 µM): 39.5%
viability, T/C (second compound 100 µM, first compound 0.0316 µM): 80.7%
viability, T/C (second compound 100 µM, first compound 0.1 µM): 75.5%
viability, T/C (second compound 100 µM, first compound 0.316 µM): 82.7%
viability, T/C (second compound 100 µM, first compound 1 µM): 58.6%
viability, T/C (second compound 100 µM, first compound 3.16 µM): 44.8%
viability, T/C (second compound 100 µM, first compound 10 µM): 34.4%

O=C(c1cc(Cc2n[nH]c(=O)c3ccccc23)ccc1F)N1CCN(C(=O)C2CC2)CC1 + Cn1nnc2c(C(N)=O)ncn2c1=O
pIC50 (second compound 1 µM): < 4.52
pIC50 (second compound 3.16 µM): < 4.52
pIC50 (second compound 10 µM): < 4.52
pIC50 (second compound 31.6 µM): < 4.52
pIC50 (second compound 100 µM): < 4.52
viability, T/C (second compound 1 µM, first compound 0.0949 µM): 84.3%
viability, T/C (second compound 1 µM, first compound 0.3 µM): 93.5%
viability, T/C (second compound 1 µM, first compound 0.949 µM): 88.7%
viability, T/C (second compound 1 µM, first compound 3 µM): 92.5%
viability, T/C (second compound 1 µM, first compound 9.49 µM): 78%
viability, T/C (second compound 1 µM, first compound 30 µM): 94%
viability, T/C (second compound 3.16 µM, first compound 0.0949 µM): 86.1%
viability, T/C (second compound 3.16 µM, first compound 0.3 µM): 81.5%
viability, T/C (second compound 3.16 µM, first compound 0.949 µM): 80.1%
viability, T/C (second compound 3.16 µM, first compound 3 µM): 79.9%
viability, T/C (second compound 3.16 µM, first compound 9.49 µM): 88.2%
viability, T/C (second compound 3.16 µM, first compound 30 µM): 84.6%
viability, T/C (second compound 10 µM, first compound 0.0949 µM): 85.4%
viability, T/C (second compound 10 µM, first compound 0.3 µM): 90.7%
viability, T/C (second compound 10 µM, first compound 0.949 µM): 85.7%
viability, T/C (second compound 10 µM, first compound 3 µM): 78.1%
viability, T/C (second compound 10 µM, first compound 9.49 µM): 80%
viability, T/C (second compound 10 µM, first compound 30 µM): 73.5%
viability, T/C (second compound 31.6 µM, first compound 0.0949 µM): 105%
viability, T/C (second compound 31.6 µM, first compound 0.3 µM): 87.5%
viability, T/C (second compound 31.6 µM, first compound 0.949 µM): 86.1%
viability, T/C (second compound 31.6 µM, first compound 3 µM): 93.1%
viability, T/C (second compound 31.6 µM, first compound 9.49 µM): 84.5%
viability, T/C (second compound 31.6 µM, first compound 30 µM): 93.6%
viability, T/C (second compound 100 µM, first compound 0.0949 µM): 76.8%
viability, T/C (second compound 100 µM, first compound 0.3 µM): 82.4%
viability, T/C (second compound 100 µM, first compound 0.949 µM): 96.4%
viability, T/C (second compound 100 µM, first compound 3 µM): 86.8%
viability, T/C (second compound 100 µM, first compound 9.49 µM): 75.2%
viability, T/C (second compound 100 µM, first compound 30 µM): 71.4%
